# Assay results reported in patent US4822791A, “Pharmaceutical compositions of-2,2-1,1-[bis-2,2'-(3,1-benzoxazin-4-one)9 ethylenes” (priority 1984, dated 1989).
# Values joined by “and” are separate entries in the source; they are usually repeats but may differ in a detail not shown here. Equal entries are not always repeated.
# Tests used:
# [1] = biological target: T1, hyaluronidase (Bos taurus, UniProt Q2YDK3); test: Anti-hyaluronidase activity (modified Morgan-Elson method); format: biochemical; conditions: hyaluronidase 340NF unit/ml; activating agent Compound 48/80 or CaCl2; read-out: IC50
# T1 sequence (Q2YDK3 36-553): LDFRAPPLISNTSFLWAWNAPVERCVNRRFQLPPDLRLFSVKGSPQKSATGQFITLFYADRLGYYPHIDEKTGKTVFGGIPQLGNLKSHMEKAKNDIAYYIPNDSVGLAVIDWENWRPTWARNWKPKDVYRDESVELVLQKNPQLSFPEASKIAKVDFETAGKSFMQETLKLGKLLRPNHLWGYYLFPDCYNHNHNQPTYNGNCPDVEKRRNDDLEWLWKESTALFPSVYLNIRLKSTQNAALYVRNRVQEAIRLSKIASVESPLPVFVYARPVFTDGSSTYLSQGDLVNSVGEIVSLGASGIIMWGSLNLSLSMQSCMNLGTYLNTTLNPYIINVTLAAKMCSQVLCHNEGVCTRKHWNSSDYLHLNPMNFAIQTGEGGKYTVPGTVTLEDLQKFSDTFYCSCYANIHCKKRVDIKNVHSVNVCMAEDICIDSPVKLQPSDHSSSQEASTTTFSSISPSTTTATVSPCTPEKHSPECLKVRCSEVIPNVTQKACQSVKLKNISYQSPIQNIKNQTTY
# Method: A buffer soluticn of hyaluronidase (0.1 ml) was taken in a test tube and 0.2 ml each of the buffer solution of various compounds in various concentrations was added, and the mixture was preincubated at 37° C. for 20 minutes. Then, an activating agent (Compound 48/80 or CaCl2) (0.2 ml) was added to make the total amount 0.5 ml, which was incubated at 37° C. for 20 minutes. Then, potassium hyaluronate buffer solution (0.5 ml) was added, and the mixture was incubated at 37° C. for 40 minutes. After cooling, the mixture was treated with aqueous solution of 0.4N NaOH (0.2 ml) and neutralized to stop the reaction. The resulting product was subjecred to measurement of OD585 by the modified Morgan-Elson Method. […] (The final ccncentration of hyaluronidase was 340NF unit/ml.) [formula]
# [2] = Acute toxicity LD50 in rats (Test Example 8); conditions: rat, in vivo, po; one week; Probit method; read-out: LD50 value (mg/kg body weight) Rat p.o.
# Method: (§1) ddy-Strain mice (male) and Wistar strain rats were used to obtain LD50 values.
# (§2) According to the ordinary procedure, suspension or solution of test sample was administered to the animals. From the number of the died animals until one week after the administration, LD50 values were obtained by Probit method.
# [3] = test system: experimental ulcer model (Shay); test: Anti-ulcer activity in experimental ulcer model (Shay); format: in vivo, Wistar strain male rats
# Method: Using 5 eight-week old Wistar strain male rats of 1 group, the rats were previously fasted for […]. The compound of an amount proportionate to the body weight based on the body weight after fasting was administered intraduodenally or intraperitoneally.
# Each test compound was evenly suspended or dissolved in an aqueous solution of 0.5% CMC ccntaining 0.1% Tween 80, and administered at the rate of 0.5 ml per 100 g of body weight of the animal. To the controls, only the solvent was administered.
# Test was carried out in accordance with Shay's method. After 48 hours' fasting, 5 animals per group were subjected to laparotomy under ether anesthesia, the tract between pylorus of stomach and duodenum was ligated, and the solution of the compound was administered intraduodenally (id) or intraperitoneally (ip), followed by suturing the laparotomy part. Eight hours after administration of the compound liquid, each animal was sacrificed by ether anesthesia and stomach was removed. Then, evaluation on the ulcer condition on the inner surface of stomach, and determination of the amount of gastric juice, of acidity by alkali titration, and of pepsin titer based on substrate of hemoglovin were made on the stored gastric juice. With regard to the acidity, gastric juice amount, and pepsin titer, the results were shown in inhibition rate (%) based on the average value of the control groups.
# [4] = Acute toxicity LD50 in mice (Test Example 8); conditions: mouse, in vivo, one week, Probit method
# Method: as §1, §2
# [5] = test system: mast cell in abdominal cavity; test: Release of histamine by antigen DNP-Ascaris, mast cell in abdominal cavity (Test Example 12); format: cell-based, rat; conditions: Rattus norvegicus, Mast cell; 10^-3 M; read-out: Effect on release of histamine by antigen DNP-Ascaris, Mast cell in abdominal cavity (control 100)
# Method: (§3) Collection of mast cells in abdominal cavity and thoracic cavity and sensitizing of cells were conducted in similar manners to those in Test Example 10, respectively.
# (§4) (1) Preparation of DNP-Ascaris antiserum was conducted in manner similar to that in Test Example 6.
# (§5) This is conducted in amanner similar to that in Test Example 10.
# (§6) This is conducted in a manner similar to that in Test Example 10.
# [6] = test system: Mast cell in thoracic cavity; test: Release of histamine by antigen DNP-Ascaris, mast cell in thoracic cavity (Test Example 12); format: cell-based; conditions: Rattus norvegicus, 10^-3 M, read-out: Effect on release of histamine by antigen DNP-Ascaris, Mast cell in thoracic cavity (control 100)
# Method: as §3, §4, §5, §6
# [7] = test system: anaphylaxis reaction to inhalated antigen; test: Antigen inhalation test on passive sensitized guinea pig (experimental asthma model); format: in vivo; conditions: 5 mg/kg iv
# Method: The test compound and Tranilast were respectively suspended at the time of use in 5% gum arabic solution containing 0.1% Tween 80 at the rate of 40 mg/ml, and were perorally administered at the rate of 0.5 ml per 100 g body weight of the animal.
# DSCG was dissolved at the time of use in physiological saline solultion for injection at the rate of 5.0 mg/ml, and was intravenously injected at the rate of 0.1 ml per 100 g body weight of the animal.
# Anti-ovalbumin rabbit serum diluted with physiological saline solution for injection so as tc contain anti-ovalbumin rabbit antibody at the rate of 0.187 mg N/ml was intravenously administered to guinea pig at the rate of 0.1 ml per 100 g of body weight and it was passively sensitized.
# Twenty-four hours later, the suspension of the compound prepared in (1) above was perorally or intravenously administered to the animal. The animal was put in the inhalation chamber one hour after the administration in case of the peroral administration and five minutes after the administration in case of the intravenous administration, and 2% physiological saline solution of antigen ovalbumin was inhaled by spraying. Over 10 minutes' period from the time immediately after the forced inhalation, the time until its fall attributed to anaphylaxis reaction was recorded, and the numbers of alive and dead animals after lapse of 10 minutes were also counted.
# [8] = test system: passive cutaneous anaphylaxis (PCA); test: Anti-passive cutaneous anaphylaxis (PCA) activity in rats (Test Example 2); format: in vivo, Wistar strain rats; conditions: for inhibition in vivo at 100 mg/kg: Rattus norvegicus, 100 mg/kg PO, N 10
# Method: (§7) Wistar strain rats were sensitized with ovalbumin using aluminium hydroxide gel and Bordetella Pertussis vaccine as adjuvants. Dilutions of antiserum (16-fold and 32-fold) obtained by collecting blood samples 14 days later were administered subcutaneously in the dorsal skin of the rats of the same strain at the rate of 0.1 ml per spot, and the rats were grown for 48 hours. One hour after peroral administration of the sample solution, a mixture of antigen ovalbumin and Evans-blue dye was administered to the tail venous of the animal according to the ordinary procedure. Thirty minutes later, the animals were sacrificed by exsanguination, and the areas of blue spots (long diameter×short diameter) eliciting on the portion of the antiserum injection at the dorsal skin were measured to obtain the rate of inhibition based on the average value shown by the control animals.
# [9] = test system: Mast cell in thoracic cavity; test: Release of histamine by dextran (T-500), mast cell in thoracic cavity (Test Example 12); format: cell-based, rat; conditions: Rattus norvegicus, Mast cell, 0.25 h; 10^-3 M; read-out: Effect on release of histamine by dextran (T-500), Mast cell in thoracic cavity (control 100)
# Method: as §3
# (§8) The sample solution was treated with 105 microgramms/ml phosphatidylserin PBS solution (0.5 ml) and incubated at 37° C. for 30 minutes, followed by addition of 25 mg/ml dextran (T-500) PBS solution (0.5 ml) and further incubation for 15 minutes.
# as §6
# [10] = test system: mast cell in abdominal cavity; test: Histamine release by antigen DNP-Ascaris, mast cell in abdominal cavity (Test Example 10); format: cell-based, rat; conditions: Rattus norvegicus, Mast cell, 20 min; 10^-3 M; read-out: released amount of histamin, Mast cell in abdominal cavity (control shown as 100)
# Method: (§9) Examination was made cn the activity of inhibition of histamine release from mast cell by antigen-antibody reaction.
# (§10) Preparation of DNP-Ascaris antiserum was conducted in a manner similar to that in Test Example 6.
# (§11) Heparin-containing PBS was injected into the abdominal cavity of rat which was sacrificed by bleeding, after which the abdomen was well massaged, and then peritoneal exudate was sampled. The same liquid was also injected into the thoracic cavity, and after shaking the breast for several minutes, the thoracic cavity liquid was sampled, which was purified by washing several times by centrifugation. The number of the mast cells contained in this liquid was measured and adjusted to a designated concentration. (Mast cells, 8.0×10^4 cells/ml).
# (§12) To the cell suspension (4 ml, 9×10^5 cells/ml), anti-DNP-Ascaris rat serum (PCA titer, 32) (4 ml) was added, and the mixture was incubated in the presence of heparin at 37° C. for 2.5 hours. To the solution, 70 microgramms/ml phosphatidylserin PBS solution (0.5 ml) was added and the mixture was incubated at 37° C. for 12 minutes, after which 140 microgramms/ml antigen DNP-Ascaris PBS solution (0.5 ml) was added and the mixture was incubated further for 20 minutes.
# After completion of the reaction, the reaction liquid was centrifuged (500 G, 10 min.) to obtain supernatant solution, and histamin in the supernatant solution was subjected to fluorometry by orthophthalal aldehyde method. The released amount of histamin in the control was shown as 100.
# [11] = test system: mast cell in abdominal cavity; test: Release of histamine by dextran (T-500), mast cell in abdominal cavity (Test Example 12); format: cell-based, rat; conditions: Rattus norvegicus, Mast cell, 0.25 h, read-out: Effect on release of histamine by dextran (T-500), Mast cell in abdominal cavity (control 100)
# Method: as §3, §8, §6
# [12] = test system: passive cutaneous anaphylaxis (PCA); test: Anti-passive cutaneous anaphylaxis activity (PCA) in rats (Test Example 9); format: in vivo; conditions: Rattus norvegicus, po, 100 mg/kg, 10 animals
# Method: as §7
# This test was conducted in a manner similar to that in Test Example 2, except that the dilutions of antiserum were 12- and 24-folds.
# [13] = test system: Mast cell in thoracic cavity; test: Histamine release by antigen DNP-Ascaris, mast cell in thoracic cavity (Test Example 10); format: cell-based; conditions: Rattus norvegicus, 20 min, 10^-3 M, read-out: released amount of histamin, Mast cell in thoracic cavity (control shown as 100)
# Method: as §9, §10, §11
# as §12, with “minutes. […]” for “minutes.”
# [14] = test system: hyaluronidase; conditions: known from the literature; cited from earlier work
smiles,measurement,setting,value
"COc1ccc(C=C(C(=O)Nc2ccccc2C(=O)O)C(=O)Nc2ccccc2C(=O)O)cc1OC [Compound 20, 2,2'-[[2-(3,4-dimethoxy)phenylmethylene-1,3-dioxo-1,3-propanediyl]diimino]bisbenzoic acid]",IC50,[1],40 µM
same,LD50 at 168 h,[2],> 10000 mg/kg
same,Inhibition % Gastric Acidity,[3]; id 100 mg/kg,64.5%
same,Inhibition % secretion amount of gastric juice,[3]; id 100 mg/kg,28.1%
same,Inhibition % total pepsin titer,[3]; id 100 mg/kg,42.5%
same,Inhibition % Gastric Acidity,[3]; id 200 mg/kg,99.5%
same,Inhibition % secretion amount of gastric juice,[3]; id 200 mg/kg,59.0%
same,Inhibition % total pepsin titer,[3]; id 200 mg/kg,69.3%
same,Inhibition % Gastric Acidity,[3]; ip 10 mg/kg,52.3%
same,Inhibition % secretion amount of gastric juice,[3]; ip 10 mg/kg,26.3%
same,Inhibition % total pepsin titer,[3]; ip 10 mg/kg,31.4%
same,Inhibition % Gastric Acidity,[3]; ip 50 mg/kg,88.0%
same,Inhibition % secretion amount of gastric juice,[3]; ip 50 mg/kg,70.9%
same,Inhibition % total pepsin titer,[3]; ip 50 mg/kg,60.7%
same,LD50 at 168 h,"[4]; iv, read-out: LD50 value (mg/kg body weight) Mouse i.v.",225 mg/kg
same,LD50 at 168 h,"[4]; po, read-out: LD50 value (mg/kg body weight) Mouse p.o.",> 10000 mg/kg
COc1ccc(C=C(C(=O)Nc2cc(Cl)ccc2C(=O)O)C(=O)Nc2cc(Cl)ccc2C(=O)O)cc1OC [Compound 21],IC50,[1],15 µM
same,activity at 1000 µM,[5],48.3%
same,activity at 1000 µM,[6],73%
"O=C(O)c1cc(=O)c2c(OCC(O)COc3cccc4oc(C(=O)O)cc(=O)c34)cccc2o1 [DSCG, disodium cromoglicate, reference compound]",Extended rate (%),[7],23.9%
same,Average time for falling Mean ± S.E.,[7]; N 5,192.5 ± 20.3 s
same,"Required time (sec.) for falling and Number of death (#), single animals","[7]; N 5, observed 10 minutes, # shows death",142 s and 188 s and 199 s and 241 s and > 600 s
same,inhibition in vivo at 100 mg/kg,[8]; read-out: Average Inhibition Rate (%) Antiserum Dilution: × 16,0.1%
same,inhibition in vivo at 100 mg/kg,[8]; read-out: Average Inhibition Rate (%) Antiserum Dilution: × 32,0.3%
same,anti-PCA activity by peroral administration (in words),[8]; peroral,no activity
same,activity at 1000 µM,[9],42.2%
same,activity at 1000 µM,[10],76.8%
same,activity at 1000 µM,[11]; 10^-3 M,60%
same,activity at 100 µM,[11]; 10^-4 M,52.9%
same,inhibition in vivo at 100 mg/kg,"[12]; read-out: Inhibition, Anti-serum Dilution: × 12",0%
same,inhibition in vivo at 100 mg/kg,"[12]; read-out: Inhibition, Anti-serum Dilution: × 24",0%
same,activity at 1000 µM,[13],105%
same,effect on hyaluronidase activity (in words),[14],inhibit hyaluronidase activity
same,activity at 1000 µM,[5],76.8%
same,activity at 1000 µM,[6],105%
